Reference: patent publication US11969436B2, “Method for treating skin irritation caused by parabens” (Kao Corporation, priority 2017, dated 2024)

Key:
[1] = system: three-dimensional cultured human epidermis model; test: IL-1α production in three-dimensional cultured human epidermis model (LabCyte EPI-MODEL 24); type: cell-based; conditions: 50 μL of 16.4 mM aqueous solution, cultured 6 hours, post-cultured 18 hours; FIG. 1
Protocol: LabCyte EPI-MODEL 24 (made by Japan Tissue Engineering Co., Ltd.) was used as a three-dimensional cultured human epidermis model. The culture insert was pre-cultured (5% CO2, 37° C.) in a 500 μL exclusive assay medium overnight, and the culture insert was transferred to a 24-well plate containing a fresh assay medium. 50 μL of a 16.4 mM aqueous solution of methyl p-hydroxybenzoate (MP) or p-hydroxybenzoic acid (PHBA) was added to the epidermal tissue in the culture insert, and the tissue was cultured for 6 hours. Then the culture insert was washed with phosphate buffer 10 times, and transferred to a 24-well plate containing a fresh assay medium, and post-cultured for 18 hours. After the post-culture, the amount of IL-1α in the medium was determined using Human IL-1 alpha/IL-1F1 Quantikine ELISA Kit (R&D Systems) according to the protocol attached.

[2] = system: skin of subjects with sensitive skin; test: Stinging test A, sensory irritation on the cheek of subjects with sensitive skin; type: in vivo, human; conditions: nonwoven fabric with 600 μL of 16.4 mM aqueous solution on the cheek, 30 seconds to 5 minutes; FIG. 2
Protocol: Those who met all of the following criteria were selected as subjects with sensitive skin.
The subjects selected were tested for Stinging test A according to the following method.
After washing face with a make-up remover and a face wash, conditioning was performed in an environment of a temperature of 23° C. and a humidity of 50% for 5 minutes or more. A 2 cm×5 cm piece of nonwoven fabric which was impregnated with 600 μL of a 16.4 mM aqueous solution of methyl p-hydroxybenzoate or p-hydroxybenzoic acid was contacted to the cheek. For sensory irritation that the subjects felt (sore, stinging, pricking, smart, hot, flushed) 30 seconds, 1 minute, 2 minutes, 3 minutes, and 5 minutes after the start of the contact, the subjects submitted scores (0: nothing felt, 0.5: slightly felt or slight discomfort, 1.0: a little discomfort, 1.5: a little to moderate discomfort, 2.0: moderate discomfort, 2.5: moderate to much discomfort, 3.0: much or unbearable discomfort). A value obtained by subtracting, from the highest score of all the scores after 30 seconds to 5 minutes, the highest score in a test performed in the same manner as above except for using distilled water was determined as the sensory irritation score, and the sensory irritation score was statistically analyzed by the Nilcoxon signed-rank test.

[3] = system: CES1; test: CES1 mRNA expression in normal human epidermal keratinocytes (real-time PCR, ΔΔ CT method); type: cell-based; conditions: 48 hours; for Relative gene expression level (with non treat as 1.0): CES1 mRNA, mean value ± SD, n = 3
Protocol: Normal human epidermal keratinocytes (Life Technologies Japan Ltd.) were seeded into a 6-well plate so that the number of cells in each well was […], and cultured in HuMedia-KG2 (KURABO INDUSTRIES LTD.) overnight. Then, an extract of broccoli sprouts (Broccoli Sprout Extract, Oryza Oil (. Fat Chemical Co., Ltd., for cosmetics) was added to the culture medium at a solid concentration of 0.0001 w/v % or 0.001 w/v %, and the cells were cultured for 48 hours. The ceils after culture was washed with D-PB3 (−) and RNA was extracted using RNeasy Mini Kits (QIAGEN) according to the manual attached. The RNA concentration was calculated by using NanoDrop 1000 (Thermo Fisher Scientific). Total RNA extracted was reverse-transcribed using High-Capacity RNA-to-cDNA Kit (Life Technologies Japan Ltd.), and then real-time PCR was performed using 7500 Fast Real-Time PCR System (Life Technologies Japan Ltd.). In the real-time PCR, the expression levels of CES1 mRNA were compared by the ΔΔ CT method using the above reverse transcribed cDNA and CES1, or, as an endogenous control, Tsqman primer for RPLP0 (Life Technologies Japan Ltd., CES1:Hs00275627-m1, RPLP0:HS00420695_gH), Taqma.n Gene Expression Master Mix (Life Technologies Japan Ltd.).
Normal human epidermal keratinocytes (Life Technologies Japan Ltd.) were seeded into a 6-well plate so that the number of cells in each well was […] and cultured in HuMedia-KG2 (KURABO INDUSTRIES LTD.) overnight. Then, suiforaphane (Sigma-Aldrich) was exposed to the cells so that the final concentration was 0.1, 1, and 10 μM, and the cells were cultured for 48 hours. The cells after culture was washed with a phosphate buffer (D-PBS (−)) and RNA was extracted using RNeasy Mini Kits (QIAGEN) according to the manual attached. The RNA concentration was calculated by using NanoDrop 1000 (Thermo Fisher Scientific). Total RNA extracted was reverse-transcribed using High-Capacity RNA-to-cDNA Kit (Life Technologies Japan Ltd.), and then real-time PCR was performed using 7500 Fast Real-Time PCR System (Life Technologies Japan Ltd.). In the real-time PCR, the expression levels of the gene were compared by the ΔΔ CT method using the above reverse transcribed cDNA and carboxylesterase 1, or, as an endogenous control, Taqman primer for RPLP0 (Life Technologies Japan Ltd., CES1:Hs00275627-m1, RPLP0:HS00420895_gH), Taqman Gene Expression Master Mix (Life Technologies Japan Ltd.).

Structure (SMILES)	amount of IL-1α in the medium [1]	sensory irritation score [2]	Relative gene expression level (with non treat as 1.0) ([3]; sulforaphane 0.1 μM)	Relative gene expression level (with non treat as 1.0) ([3]; sulforaphane 1 μM)	Relative gene expression level (with non treat as 1.0) ([3]; sulforaphane 10 μM)	expression level of CES1 mRNA ([3]; sulforaphane 0.1, 1 and 10 μM, summary of Table 1)
O=C(O)c1ccc(O)cc1 [PHBA, p-hydroxybenzoic acid]	much smaller than that when MP was used	very mild				
COC(=O)c1ccc(O)cc1 [MP, methyl p-hydroxybenzoate]		felt some irritation				
C[S+]([O-])CCCCN=C=S (stereo not shown) [Sulforaphane, 4-(methylsulfinyl)butyl isothiocyanate]			1.5 ± 0.33	3.6 ± 0.90	35 ± 8.4	increased the expression level of CES1 mRNA
